# Legend:
# [1] = target: T1, SIK3 kinase (aa59-365, Thermo Fisher) (Homo sapiens, UniProt Q9Y2K2); test: Biochemical activities determination for SIK3 protein (TR-FRET); details: 125 uM ATP, 0.5 μM STK1 substrate
# T1 construct: SIK3 kinase (aa59-365, Thermo Fisher); purchased Thermo Fisher
# In short: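 SIK3 (aa59-365) was preincubated with compound (0-10 μM) for 60 min at room temperature in Tris buffer pH 7.5. The reaction was then started with 125 uM ATP and 0.5 μM STK1 substrate and run 180 min at room temperature. Phospho-substrate was detected by HTRF (665/620 nm ratio), and IC50 came from a four-parameter logistic fit.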
# [2] = target: T2, SIK2 kinase (full length, Thermo Fisher) (Homo sapiens, UniProt Q9H0K1); test: Biochemical activities determination for SIK2 protein (TR-FRET); details: 80 uM ATP, 0.5 μM substrate
# T2 construct: SIK2 kinase (full length, Thermo Fisher); purchased Thermo Fisher
# In short: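 Full-length SIK2 preincubated 60 min with 0–10 μM compound, then reacted 180 min at room temperature with 80 uM ATP and 0.5 μM biotinylated substrate (pH 7.5 Tris/MgCl2 buffer). Phosphorylation detected by TR-FRET (665/620 nm ratio, cryptate antibody/streptavidin-XL665) after overnight incubation; IC50 from four-parameter logistic fit.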
# [3] = target: T3, SIK1 kinase (aa1-303, Thermo Fisher) (Homo sapiens, UniProt P57059); test: Biochemical activities determination for SIK1 protein (TR-FRET); details: 110 uM ATP, 0.5 μM STK1 substrate
# T3 construct: SIK1 kinase (aa1-303, Thermo Fisher); purchased Thermo Fisher
# In short: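 TR-FRET kinase assay with SIK1 (aa1-303), 110 uM ATP, 0.5 μM STK1 substrate and 0-10 μM compound in Tris pH 7.5 with MgCl2, EGTA, DTT, Triton X-100. Enzyme preincubated with compound 60 min, reaction 180 min at room temperature; 665/620 nm ratio after overnight detection; IC50 from four-parameter logistic fit.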
# T1 sequence (Q9Y2K2 59-365): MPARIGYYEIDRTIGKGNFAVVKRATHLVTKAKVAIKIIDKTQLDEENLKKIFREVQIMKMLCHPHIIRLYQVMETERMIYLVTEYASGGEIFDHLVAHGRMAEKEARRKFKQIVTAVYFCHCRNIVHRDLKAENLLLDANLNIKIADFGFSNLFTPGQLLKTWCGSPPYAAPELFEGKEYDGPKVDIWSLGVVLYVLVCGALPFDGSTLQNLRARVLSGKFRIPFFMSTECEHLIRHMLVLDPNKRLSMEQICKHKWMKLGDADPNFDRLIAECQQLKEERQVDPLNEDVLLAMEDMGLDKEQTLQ
# T3 sequence (P57059 1-303): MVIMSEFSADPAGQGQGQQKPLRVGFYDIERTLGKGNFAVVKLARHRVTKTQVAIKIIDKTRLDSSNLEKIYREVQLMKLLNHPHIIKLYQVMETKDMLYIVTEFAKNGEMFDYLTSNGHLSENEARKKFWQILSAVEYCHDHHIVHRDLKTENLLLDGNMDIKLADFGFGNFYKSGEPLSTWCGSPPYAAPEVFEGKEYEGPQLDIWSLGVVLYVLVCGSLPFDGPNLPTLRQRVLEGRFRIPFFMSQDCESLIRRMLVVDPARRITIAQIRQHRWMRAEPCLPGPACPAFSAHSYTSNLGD
# T2 sequence (Q9H0K1 whole entry): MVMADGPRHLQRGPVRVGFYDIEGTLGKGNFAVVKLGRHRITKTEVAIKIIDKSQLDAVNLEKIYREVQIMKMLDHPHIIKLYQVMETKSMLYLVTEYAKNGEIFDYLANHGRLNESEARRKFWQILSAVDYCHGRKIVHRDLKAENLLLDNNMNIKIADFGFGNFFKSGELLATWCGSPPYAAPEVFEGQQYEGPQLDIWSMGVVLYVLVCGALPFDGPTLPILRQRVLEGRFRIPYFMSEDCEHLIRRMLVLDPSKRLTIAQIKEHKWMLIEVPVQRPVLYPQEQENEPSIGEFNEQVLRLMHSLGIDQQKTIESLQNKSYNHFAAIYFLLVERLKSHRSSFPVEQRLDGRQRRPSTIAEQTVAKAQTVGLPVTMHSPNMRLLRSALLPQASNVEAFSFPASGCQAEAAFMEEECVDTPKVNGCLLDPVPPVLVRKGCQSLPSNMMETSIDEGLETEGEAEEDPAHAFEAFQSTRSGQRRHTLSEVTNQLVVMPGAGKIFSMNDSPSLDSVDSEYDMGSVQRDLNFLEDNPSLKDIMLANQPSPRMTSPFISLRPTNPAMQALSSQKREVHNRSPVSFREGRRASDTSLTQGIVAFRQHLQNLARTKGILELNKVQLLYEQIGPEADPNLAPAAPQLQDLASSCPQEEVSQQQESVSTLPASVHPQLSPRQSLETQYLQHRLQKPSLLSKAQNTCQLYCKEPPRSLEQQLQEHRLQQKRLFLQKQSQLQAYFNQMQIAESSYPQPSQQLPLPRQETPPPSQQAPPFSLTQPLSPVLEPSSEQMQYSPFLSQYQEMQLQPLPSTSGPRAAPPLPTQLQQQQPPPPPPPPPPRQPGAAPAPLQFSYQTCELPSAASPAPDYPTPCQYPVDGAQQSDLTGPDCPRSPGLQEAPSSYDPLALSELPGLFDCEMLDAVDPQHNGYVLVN
SMILES,IC50 [1],IC50 [2],IC50 [3]
"CC(C)Oc1cc(-c2coc3cc(OCCN4CCCC4)ccc23)cc(OC(F)F)c1C(=O)NC1CC1 [Compound 120, N-cyclopropyl-2-(difluoromethoxy)-6-isopropoxy-4-(6-(2-(pyrrolidin-1-yl)ethoxy)benzofuran-3-yl)benzamide]",2540 nM,619 nM,> 10000 nM
"CNc1cc(-c2coc3cc(OCCN4CCCC4)ccc23)cc(OC(F)F)c1C(=O)NC1CC1 [Compound 122, N-cyclopropyl-2-(difluoromethoxy)-6-(methylamino)-4-(6-(2-(pyrrolidin-1-yl)ethoxy)benzofuran-3-yl)benzamide]",158 nM,45 nM,3960 nM
"Cc1ccc(-c2ccc3c(-c4cc5c(c(OC(F)F)c4)C(=O)N(CC(F)(F)F)CC5)coc3c2)nn1 [Example 14, 8-(difluoromethoxy)-6-(6-(6-methylpyridazin-3-yl)benzofuran-3-yl)-2-(2,2,2-trifluoroethyl)-3,4-dihydroisoquinolin-1 (2H)-one]",329 nM,310 nM,> 10000 nM
"Cn1cc(-c2ccc3c(-c4cc5c(c(OC(F)F)c4)C(=O)N(CC(F)(F)F)CC5)coc3c2)cn1 [Example 13, 8-(difluoromethoxy)-6-(6-(1-methyl-1H-pyrazol-4-yl)benzofuran-3-yl)-2-(2,2,2-trifluoroethyl)-3,4-dihydroisoquinolin-1 (2H)-one]",54 nM,25 nM,647 nM
"COc1cc(-c2coc3cc(OCC4CCCN4C)ccc23)cc2c1C(=O)N(CC(F)(F)F)CC2 (stereo not drawn) [Compound 61, 8-methoxy-6-(6-((1-methylpyrrolidin-2-yl)methoxy)benzofuran-3-yl)-2-(2,2,2-trifluoroethyl)-3,4-dihydroisoquinolin-1 (2H)-one]",322 nM,147 nM,> 10000 nM
"CN1CC[C@@H](Oc2cc(-c3coc4cc(OCCN5CCCC5)ccc34)cc(OC(F)F)c2C(=O)NC2CC2)C1 [Compound 110, (R)—N-cyclopropyl-2-(difluoromethoxy)-6-((1-methylpyrrolidin-3-yl)oxy)-4-(6-(2-(pyrrolidin-1-yl)ethoxy)benzofuran-3-yl)benzamide]",> 10000 nM,3850 nM,> 10000 nM
"COc1cc(-c2coc3cc(-c4cnnc(C)c4)ccc23)cc2c1C(=O)N(CC(F)(F)F)CC2 [Example 10, 8-methoxy-6-(6-(6-methylpyridazin-4-yl)benzofuran-3-yl)-2-(2,2,2-trifluoroethyl)-3,4-dihydroisoquinolin-1 (2H)-one]",187 nM,418 nM,> 10000 nM
"COc1cc(-c2coc3cc(OCCN4CCCC4)ccc23)cc(OC(F)F)c1C(=O)N[C@H]1CCCC[C@H]1O [Compound 125, 2-(difluoromethoxy)-N-((1S,2R)-2-hydroxycyclohexyl)-6-methoxy-4-(6-(2-(pyrrolidin-1-yl)ethoxy)benzofuran-3-yl)benzamide]",2490 nM,385 nM,> 10000 nM
"COc1cc(-c2coc3cc(-c4cnn(C)c4)ccc23)cc(OC(F)F)c1C(=O)NCC(F)(F)F [Compound 25, 2-(difluoromethoxy)-6-methoxy-4-(6-(1-methyl-1H-pyrazol-4-yl)benzofuran-3-yl)-N-(2,2,2-trifluoroethyl)benzamide]",26 nM,15 nM,195 nM
"O=C(NC1CC1)c1c(OC(F)F)cc(-c2coc3cc(OCCN4CCCC4)ccc23)cc1O[C@H]1CC[C@H](O)CC1 [Compound 101, N-cyclopropyl-2-(difluoromethoxy)-6-(((1r,4r)-4-hydroxycyclohexyl)oxy)-4-(6-(2-(pyrrolidin-1-yl)ethoxy)benzofuran-3-yl)benzamide]",> 10000 nM,8970 nM,> 10000 nM
"CN1CCC[C@H]1COc1cc(-c2coc3cc(OCCN4CCCC4)ccc23)cc(OC(F)F)c1C(=O)NC1CC1 [Compound 113, (S)—N-cyclopropyl-2-(difluoromethoxy)-6-((1-methylpyrrolidin-2-yl)methoxy)-4-(6-(2-(pyrrolidin-1-yl)ethoxy)benzofuran-3-yl)benzamide]",> 10000 nM,7320 nM,> 10000 nM
"COc1cc(-c2coc3cc(OCCN4CCCC4)ccc23)cc(OC(F)F)c1C(=O)NC1CC1N (racemic) [Compound 131, N-(2-aminocyclopropyl)-2-(difluoromethoxy)-6-methoxy-4-(6-(2-(pyrrolidin-1-yl)ethoxy)benzofuran-3-yl)benzamide]",1560 nM,653 nM,> 10000 nM
"COc1cc(-c2coc3cc(-c4cnn(C5CCN(C)CC5)c4)ccc23)cc(OC(F)F)c1C(=O)N[C@@H]1C[C@@H]1F [Compound 39, 2-(difluoromethoxy)-N-((1R,2S)-2-fluorocyclopropyl)-6-methoxy-4-(6-(1-(1-methylpiperidin-4-yl)-1H-pyrazol-4-yl)benzofuran-3-yl)benzamide]",4.1 nM,1.7 nM,25 nM
"O=C1c2c(cc(-c3coc4cc(-c5cnn(C6CCOCC6)c5)ccc34)cc2OC(F)F)CCN1CC(F)(F)F [Compound 41, 8-(difluoromethoxy)-6-(6-(1-(tetrahydro-2H-pyran-4-yl)-1H-pyrazol-4-yl)benzofuran-3-yl)-2-(2,2,2-trifluoroethyl)-3,4-dihydroisoquinolin-1 (2H)-one]",69 nM,33 nM,1710 nM
"COc1ccc(-c2ccc3c(-c4cc5c(c(OC)c4)C(=O)N(CC(F)(F)F)CC5)coc3c2)cn1 [Example 9, 8-methoxy-6-(6-(6-methoxypyridin-3-yl)benzofuran-3-yl)-2-(2,2,2-trifluoroethyl)-3,4-dihydroisoquinolin-1 (2H)-one]",334 nM,296 nM,> 10000 nM
"CN1CC[C@@H]1COc1cc(-c2coc3cc(OCCN4CCCC4)ccc23)cc(OC(F)F)c1C(=O)NC1CC1 [Compound 114, (R)—N-cyclopropyl-2-(difluoromethoxy)-6-((1-methylazetidin-2-yl)methoxy)-4-(6-(2-(pyrrolidin-1-yl)ethoxy)benzofuran-3-yl)benzamide]",5490 nM,745 nM,> 10000 nM
"COc1cc(-c2coc3cc(OCCN4CCCC4)ccc23)cc(OC(F)F)c1C(=O)N[C@@H]1C[C@@H]1F [Compound 67, 2-(difluoromethoxy)-N-((1R,2S)-2-fluorocyclopropyl)-6-methoxy-4-(6-(2-(pyrrolidin-1-yl)ethoxy)benzofuran-3-yl)benzamide]",79 nM,23 nM,2450 nM
"Cn1cc(-c2ccc3c(-c4cc5c(c(OC(F)F)c4)C(=O)N(CC#N)CC5)coc3c2)cn1 [Compound 21, 2-(8-(difluoromethoxy)-6-(6-(1-methyl-1H-pyrazol-4-yl)benzofuran-3-yl)-1-oxo-3,4-dihydroisoquinolin-2 (1H)-yl) acetonitrile]",15 nM,11 nM,289 nM
"O=C1c2c(cc(-c3coc4cc(-c5cnn(C6CCOC6)c5)ccc34)cc2OC(F)F)CCN1CC(F)(F)F (stereo not drawn) [Compound 40, 8-(difluoromethoxy)-6-(6-(1-(tetrahydrofuran-3-yl)-1H-pyrazol-4-yl)benzofuran-3-yl)-2-(2,2,2-trifluoroethyl)-3,4-dihydroisoquinolin-1 (2H)-one]",31 nM,14 nM,537 nM
"COc1cc(-c2coc3cc(OCCN4CCC[C@H](C)C4)ccc23)cc(OC(F)F)c1C(=O)N[C@@H]1C[C@@H]1F [Compound 88, 2-(difluoromethoxy)-N-((1R,2S)-2-fluorocyclopropyl)-6-methoxy-4-(6-(2-((S)-3-methylpiperidin-1-yl)ethoxy)benzofuran-3-yl)benzamide]",68 nM,17 nM,4540 nM
"CCOc1cncc(-c2ccc3c(-c4cc5c(c(OC)c4)C(=O)N(CC(F)(F)F)CC5)coc3c2)c1 [Example 6, 6-(6-(5-ethoxypyridin-3-yl)benzofuran-3-yl)-8-methoxy-2-(2,2,2-trifluoroethyl)-3,4-dihydroisoquinolin-1 (2H)-one]",1430 nM,7460 nM,> 10000 nM
"COc1cc(-c2coc3cc(OCCN4CCCC4)ccc23)cc(OC(F)F)c1C(=O)N[C@H]1C[C@H]1F [Compound 98, 2-(difluoromethoxy)-N-((1S,2R)-2-fluorocyclopropyl)-6-methoxy-4-(6-(2-(pyrrolidin-1-yl)ethoxy)benzofuran-3-yl)benzamide]",525 nM,128 nM,> 10000 nM
"COc1cc(-c2coc3cc(OCCN4CC[C@@H](F)C4)ccc23)cc(OC(F)F)c1C(=O)N[C@@H]1C[C@@H]1F [Compound 71, 2-(difluoromethoxy)-N-((1R,2S)-2-fluorocyclopropyl)-4-(6-(2-((R)-3-fluoropyrrolidin-1-yl)ethoxy)benzofuran-3-yl)-6-methoxybenzamide]",39 nM,48 nM,1380 nM

# Reference: US20260085053A1, “BENZOFURAN DERIVATIVES AS SIK INHIBITORS AND THE USE THEREOF” (BEONE MEDICINES I GMBH, priority 2023, published 2026)
